Assay results taken from patent US20100081679A1, “DIAMINOPYRIMIDINES AS FUNGICIDES” (Bayer CropScience AG, priority 2007, published 2010).
Counter-ions that a name gives are not always drawn. Marks after values point to notes of the source that are not given here.

Assay: logP determination via retention times, calibrated with unbranched alkan-2-ones
Format: physicochemical
Conditions: HPLC on reversed-phase C 18, EEC Directive 79/831 Annex V.A8; method *: 40° C., 0.1% aqueous formic acid and acetonitrile, linear gradient 10% to 95% acetonitrile

Row | logP | SMILES
1 | 0.89* | CC(=O)Nc1ccc(Nc2ncc(Cl)c(NCC3CC3)n2)cn1 [compound 507]
2 | 1.47* | CC(=O)Nc1ccc(Nc2ncc(Br)c(NCC3CC3)n2)cn1 [compound 481]
3 | 1.83* | CCN(C(C)=O)c1ccc(Nc2ncc(Br)c(NCC3CC3)n2)cc1 [compound 480]
4 | 1.66* | C=CC(=O)Nc1cccc(Nc2ncc(Br)c(NCC3CC3)n2)c1 [compound 482]
5 | 2.29* | O=C(Nc1cccc(Nc2ncc(Br)c(NCC3CC3)n2)c1)c1ccccc1 [compound 492]
6 | 1.17* | O=CNc1ccc(Nc2ncc(Cl)c(NCC3CC3)n2)cc1 [compound 544]
7 | 2.36* | O=C(Nc1cccc(Nc2ncc(Br)c(NCC3CC3)n2)c1)Oc1ccccc1 [compound 466]
8 | 1.56* | CN(C=O)c1ccc(Nc2ncc(Cl)c(NCC3CC3)n2)cc1 [compound 545]
9 | 3.55* | FC(F)(F)c1cnc(Nc2cccc(N3CCCC3)c2)nc1NC1CC1 [compound 564]
10 | 1.58* | CC(=O)Cc1ccc(Nc2ncc(Br)c(NC3CC3)n2)cc1 [compound 565]
11 | 1.8* | CCOC(=O)Nc1ccc(Nc2ncc(Cl)c(NCC3CC3)n2)cc1 [compound 543]
12 | 1.64* | O=C(c1ccc(Nc2ncc(Br)c(NCC3CC3)n2)cc1)N1CCOCC1 [compound 484]
13 | 1.68* | CCOC(=O)Nc1ccc(Nc2ncc(Cl)c(NCC3CC3)n2)cc1O [compound 542]
14 | 1.68* | CC1COC(=O)N1c1cccc(Nc2ncc(Br)c(NC3CC3)n2)c1 (stereo not drawn) [compound 533]
15 | 1.44* | CNC(=O)c1cccc(Nc2ncc(Cl)c(NCC3CC3)n2)c1 [compound 511]
16 | 2.51* | FC(F)Oc1cccc(Nc2ncc(Cl)c(NC3CC3)n2)c1 [compound 534]

Same assay, conditions: HPLC on reversed-phase C 18, method **: 43° C.; 0.1% aqueous phosphoric acid and acetonitrile; linear gradient 10% to 95% acetonitrile

Row | logP | SMILES
17 | 2.71** | COCc1cccc(Nc2ncc(Cl)c(N(C)CC3CC3)n2)c1 [compound 965]

Same assay, conditions: HPLC on reversed-phase C18, method *: 40° C., 0.1% aqueous formic acid and acetonitrile, linear gradient 10% to 95% acetonitrile

Row | logP | SMILES
18 | 2.68* | CC(=O)CCc1cccc(Nc2ncc(C(F)(F)F)c(NC3CC3)n2)c1 [compound 959]
19 | 2.21* | C#CCS(=O)(=O)c1ccc(Nc2ncc(Cl)c(NC3CC3)n2)cc1 [compound 161]
20 | 1.75* | O=C(Nc1ccccc1)Nc1ccc(Nc2ncc(Cl)c(NC3CC3)n2)cc1 [compound 739]
21 | 1.35* | Cc1cc(Nc2ncc(Br)c(NC3CC3)n2)ccc1O [compound 116]
22 | 2.27* | CSc1cccc(Nc2ncc(Cl)c(NCC3CC3)n2)c1 [compound 119]
23 | 1.44* | CS(=O)(=O)Nc1ccc(Nc2ncc(Br)c(NC3CC3)n2)cc1 [compound 756]
24 | 3.33* | FC(F)(F)c1ccc(Nc2ncc(Br)c(NC3CC3)n2)cc1 [compound 740]
25 | 2.37* | C=CCOc1cccc(Nc2ncc(Cl)c(NC3CC3)n2)c1 [compound 715]
26 | 2.7* | Clc1cnc(Nc2ccccc2Br)nc1NC1CC1 [compound 871]
27 | 1.93* | CCC(=O)Nc1ccc(Nc2ncc(C(F)(F)F)c(NC3CC3)n2)cc1 [compound 710]
28 | 2.03* | COCC(C)Nc1ccc(Nc2ncc(Cl)c(NC3CC3)n2)cc1 (stereo not drawn) [Example 110]
29 | 1.99* | COc1ccccc1Nc1ncc(Cl)c(NCC2CC2)n1 [compound 687]
30 | 3.63* | Clc1cc(Nc2ncc(Cl)c(NC3CC3)n2)ccc1Br [compound 919]
31 | 1.5* | O=C1CCCN1c1ccc(Nc2ncc(Cl)c(NCC3CC3)n2)cc1 [compound 154]
32 | 3.89* | CC(Cl)c1cccc(Nc2ncc(C(F)(F)F)c(NCC3CC3)n2)c1 (stereo not drawn) [compound 703]
33 | 3.29* | Clc1cnc(Nc2ccc(C3CCCCC3)cc2)nc1NC1CC1 [compound 952]
34 | 1.89* | N#Cc1cnc(Nc2ccc(N3CCCC3=O)cc2)nc1NC1CC1 [compound 157]
35 | 0.85* | N#Cc1ccccc1Nc1ncc(Cl)c(NC2CC2)n1 [compound 881]
36 | 4.14* | CC(C)c1cccc(Nc2ncc(C(F)(F)F)c(NC3CC3)n2)c1 [compound 973]
37 | 0.91* | Clc1cnc(Nc2cccc(-n3ccnc3)c2)nc1NC1CC1 [compound 720]

Same assay, conditions: HPLC on reversed-phase C18, method *: 40° C.; mobile phase 0.1% aqueous formic acid and acetonitrile; linear gradient 10% to 95% acetonitrile

Row | logP | SMILES
38 | 1.97* | O=C(Nc1ccc(Nc2ncc(Br)c(NC3CC3)n2)cc1)C(F)(F)F [compound 350]
39 | 2.48* | Clc1cnc(Nc2ccc(OC3CCCC3)cc2)nc1NC1CC1 [compound 299]
40 | 1.9* | CS(=O)(=O)c1ccc(Nc2ncc(Br)c(NC3CC3)n2)cc1 [compound 345]

Same assay, conditions: HPLC on reversed-phase C18 column (EEC Directive 79/831 Annex V.A8); method *: 40° C.; 0.1% aqueous formic acid and acetonitrile; linear gradient 10% to 95% acetonitrile

Row | logP | SMILES
41 | 1.9* | COC(=O)c1cccc(Nc2ncc(Cl)c(NC3CC3)n2)c1 [compound 196]
42 | 2.09* | N#CCC(=O)c1ccc(Nc2ncc(Cl)c(NC3CC3)n2)cc1 [compound 248]
43 | 2.13* | CN(C)C(=O)c1ccc(Nc2ncc(C(F)(F)F)c(NCC3CC3)n2)cc1 [compound 206]
44 | 2.34* | CCC(=O)c1ccc(Nc2ncc(Cl)c(NC3CC3)n2)cc1 [compound 257]
45 | 1.67* | COCc1cccc(Nc2ncc(Cl)c(NC3CC3)n2)c1 [compound 268]

Same assay, conditions: HPLC reversed-phase C 18, EEC Directive 79/831 Annex V.A8; method *: 40° C., 0.1% aqueous formic acid and acetonitrile, linear gradient 10% to 95% acetonitrile

Row | logP | SMILES
46 | 2.82* | CCSC(C)c1cccc(Nc2ncc(Cl)c(NC3CC3)n2)c1 (stereo not drawn) [compound 810]
47 | 1.47* | CC(C)(O)c1cccc(Nc2ncc(Cl)c(NC3CC3)n2)c1 [compound 784]
48 | 1.47* | COCC(C)NC(=O)c1cccc(Nc2ncc(Cl)c(NC3CC3)n2)c1 (stereo not drawn) [compound 796]
49 | 1.99* | Oc1c(Cl)cc(Nc2ncc(Cl)c(NC3CC3)n2)cc1Cl [compound 845]
50 | 1.67* | CC(=O)Cc1cccc(Nc2ncc(Cl)c(NCC3CC3)n2)c1 [compound 781]
51 | 1.64* | CC(=O)Cc1cccc(Nc2ncc(Br)c(NC3CC3)n2)c1 [compound 782]
52 | 2.88* | Clc1cnc(Nc2ccccc2)nc1NC1(COc2ccccc2)CC1 [compound 801]

Same assay, conditions: method **: HPLC reversed-phase C 18, 43° C., 0.1% aqueous phosphoric acid and acetonitrile, linear gradient 10% to 95% acetonitrile

Row | logP | SMILES
53 | 2.7** | Clc1cccc(Nc2ncc(Cl)c(NCC3CC3)n2)c1 [compound 9]
54 | 2.75** | CCCCNS(=O)(=O)c1ccc(Nc2ncc(Cl)c(NCC3CC3)n2)cc1 [compound 23]
55 | 1.37** | CNS(=O)(=O)Cc1ccc(Nc2ncc(Cl)c(NC3CC3)n2)cc1 [Example 48]
56 | 1.45** | Fc1cnc(Nc2ccccc2)nc1NC1CC1 [compound 42]

Same assay, conditions: method **: HPLC, reversed-phase C 18, 43° C., mobile phase 0.1% aqueous phosphoric acid and acetonitrile, linear gradient from 10% to 95% acetonitrile

Row | logP | SMILES
57 | 1.86** | CN(C)C(=O)c1ccc(Nc2ncc(Cl)c(NC3CC3(C)C)n2)cc1 (stereo not drawn) [compound 1030]
58 | 0.83** | Clc1cnc(Nc2cccc(Cn3ccnc3)c2)nc1NC1CC1 [compound 1046]
59 | 3.37** | COc1ccc(CN(c2nc(Nc3cccc(N4CCCC4=O)c3)ncc2Cl)C2CC2)cc1 [compound 1045]

Same assay, conditions: method *: HPLC reversed-phase C18, 40° C., 0.1% aqueous formic acid and acetonitrile, linear gradient 10% to 95% acetonitrile

Row | logP | SMILES
60 | 1.39* | CNC(=O)c1ccc(Nc2ncc(Br)c(NC3CC3)n2)cc1 [compound 382]
61 | 3.17* | CC(C)COc1cccc(Nc2ncc(Cl)c(NC3CC3)n2)c1 [compound 444]
62 | 1.05* | O=C1Cc2cc(Nc3ncc(Cl)c(NC4CC4)n3)ccc2N1 [Example 56]
63 | 1.28* | Clc1cnc(Nc2ccccc2)nc1NC1CC1 [Example 70]
64 | 2.18* | C=CCS(=O)(=O)c1ccc(Nc2ncc(Cl)c(NC3CC3)n2)cc1 [Example 61]
65 | 1.9* | C=CCNC(=O)c1ccc(Nc2ncc(Br)c(NCC3CC3)n2)cc1 [compound 425]
66 | 1.8* | Cc1cnc(Nc2cccc(Cl)c2)nc1NC1CC1 [compound 57]
67 | 1.12* | Oc1ccc(Nc2ncc(Cl)c(NC3CC3)n2)cc1 [Example 75]
68 | 1.84* | Clc1cnc(Nc2ccccc2)nc1NC1CC1 [Example 76]
69 | 2.13* | CC(C)(C)OC(=O)Nc1ccc(Nc2ncc(Br)c(NC3CC3)n2)cc1 [compound 391]

Same assay, conditions: method *: HPLC reversed-phase C 18, temperature 40° C.; mobile phase 0.1% aqueous formic acid and acetonitrile; linear gradient 10% to 95% acetonitrile

Row | logP | SMILES
70 | 1.53* | CCOC(=O)Nc1cccc(Nc2ncc(F)c(NC3CC3)n2)c1 [compound 596]
71 | 2.99* | COc1cc(Nc2ncc(C(F)(F)F)c(NC3CC3)n2)ccc1F [compound 635]
72 | 2.84* | CN(C)S(=O)(=O)c1ccc(Nc2ncc(C(F)(F)F)c(NC3CC3)n2)cc1 [compound 645]
73 | 1.68* | CSc1ccc(Nc2ncc(F)c(NC3CC3)n2)cc1 [compound 587]
74 | 2.46* | CC(C)(C)C(=O)Nc1ccc(Nc2ncc(C(F)(F)F)c(NC3CC3)n2)cc1 [compound 647]

Same assay, conditions: method *: HPLC, reversed-phase C 18, 40° C., mobile phase 0.1% aqueous formic acid and acetonitrile, linear gradient from 10% to 95% acetonitrile

Row | logP | SMILES
75 | 1.86*; | CN(C)C(=O)c1ccc(Nc2ncc(Cl)c(NC3CC3(C)C)n2)cc1 (stereo not drawn) [compound 1030]
76 | 3.13* | CCCCOc1cc(Nc2ncc(Cl)c(NC3CC3)n2)ccc1C [compound 991]
77 | 2.09* | Cc1cccc(Nc2ncc(Cl)c(NCC3CC3)n2)c1 [compound 1051]
78 | 1.25* | OCc1cc(Nc2ncc(Cl)c(NC3CC3)n2)ccc1F [compound 1047]

Same assay, conditions: pH 2.3; read-out: logP (pH2.3)

Row | chromatographic logP | SMILES
79 | 1.42 | Fc1cnc(Cl)nc1NC1CC1 [2-chloro-N-cyclopropyl-5-fluoropyrimidine-4-amine]
80 | 2.11 | CC(C)Oc1ccc(Nc2ncc(Cl)c(NCC3CC3)n2)cc1 [Example 55, 5-Chloro-N^4-(cyclopropylmethyl)-N^2-(4-isopropoxyphenyl)pyrimidine-2,4-diamine hydrochloride]

Same assay, conditions: reversed-phase C18 HPLC column; method **: HPLC reversed-phase C 18, 43° C., 0.1% aqueous phosphoric acid and acetonitrile, linear gradient 10% to 95% acetonitrile; read-out: logP

Row | chromatographic logP | SMILES
81 | 2.11 | CC(C)Oc1ccc(Nc2ncc(Cl)c(NCC3CC3)n2)cc1 [Example 55, 5-Chloro-N^4-(cyclopropylmethyl)-N^2-(4-isopropoxyphenyl)pyrimidine-2,4-diamine hydrochloride]
